Data: ChEMBL document CHEMBL1132953, “Design and synthesis of pyrrolidine-5,5-trans-lactams (5-oxo-hexahydro-pyrrolo[3,2-b]pyrroles) as novel mechanism-based inhibitors of human cytomegalovirus protease. 1. The alpha-methyl-trans-lactam template” (J Med Chem, 2000)

Key:
Prothrombin = Prothrombin (Homo sapiens, UniProt P00734); assay: Tested for inhibitory activity against Thrombin.
[1] = Tested for inhibitory activity against elastase.

IC50 (Prothrombin): 6.2 µM | IC50 [1]: 7.58 µM
SMILES: CC(=O)OCC(=O)N1C(=O)C[C@@H]2[C@@H]1CCN2C(=O)OCc1ccccc1
